Columns and labels:
peripheral leukocytes = assay: Effect on the peripheral leucocytes number (WBC4000); assay type: in vivo, ddY mice; conditions: statement in words on Table 2 (image); comparison with control compounds A, B, C, D where stated; intraperitoneal, 4 days after administration
Procedure: (4) Effect on the peripheral leucocytes number: • Sarcoma 180 solid tumor cells […] were subcutaneously implanted into the right axilla of each mouse (body weight 20 ±2 g) of a group consisting of 5 male mice (ddY strain). 24 hours after implantation, a test compound was intraperitoneally administered to each animal. 4 days after the administration, blood (each 0.02 ml) was collected from the suborbital plexus vein of each tumor-carrying animal. The collected sample of blood was dispersed in 9.98 ml of Cell-Kit Seven solution. One drop of saponin solution was added to the sample to dissolve erythrocytes and then a microcell counter was used to count the number of leucocytes. On graph paper, the number of leucocytes was indicated by an arithmetic scale on the longitudinal axis and the dose of the test compound was indicated by a logarithmic scale on the lateral axis. The relationship between the number of peripheral leucocytes and the dose of the test compound was plotted and the dose (i.e., WBC4000) corresponding to 4000 peripheral leucocytes/mm3 (about half the number of leucocytes of normal mice) was obtained.

[1] = pH 7

SMILES: COC12C(COC(N)=O)C3=C(C(=O)C(C)=C(NCCCSSCCCNC4=C(C)C(=O)C5=C(C4=O)C(COC(N)=O)C4(OC)C6NC6CN54)C3=O)N1CC1NC12 (stereo not drawn) [Compound 1, 7-N,7'-N'-(dithioditrimethylene) dimitomycin C]
- WBC4000 (dosage reducing the peripheral leukocytes to 4000/mm3) (peripheral leukocytes): considerably increased

SMILES: COC12C(COC(N)=O)C3=C(C(=O)C(C)=C(NCCCCCCSSCCCCCCNC4=C(C)C(=O)C5=C(C4=O)C(COC(N)=O)C4(OC)C6NC6CN54)C3=O)N1CC1NC12 (stereo not drawn) [Compound 8, 7-N,7'-N'-(dithiodihexamethylene) dimitomycin C]
- WBC4000 (dosage reducing the peripheral leukocytes to 4000/mm3) (peripheral leukocytes): considerably increased

SMILES: COC12C(COC(N)=O)C3=C(C(=O)C(C)=C(NCCCCSSCCCCNC4=C(C)C(=O)C5=C(C4=O)C(COC(N)=O)C4(OC)C6NC6CN54)C3=O)N1CC1NC12 (stereo not drawn) [Compound 4, 7-N,7'-N'-(dithioditetramethylene) dimitomycin C]
- WBC4000 (dosage reducing the peripheral leukocytes to 4000/mm3) (peripheral leukocytes): considerably increased

SMILES: COC12C(COC(N)=O)C3=C(C(=O)C(C)=C(NCCCCCCCCSSCCCCCCCCNC4=C(C)C(=O)C5=C(C4=O)C(COC(N)=O)C4(OC)C6NC6CN54)C3=O)N1CC1NC12 (stereo not drawn) [Compound 10, 7-N,7'-N'-(dithiodioctamethylene) dimitomycin C]
- solubility (result in words) [1]: scarcely soluble in water

SMILES: COC12C(COC(N)=O)C3=C(C(=O)C(C)=C(NCCCCSSCC(O)CO)C3=O)N1CC1NC12 (stereo not drawn) [Compound 26, 7-N-[4-(2,3-dihydroxypropyldithio)butyl] mitomycin C]
- WBC4000 (dosage reducing the peripheral leukocytes to 4000/mm3) (peripheral leukocytes): considerably increased

SMILES: CO[C@@]12[C@H](COC(N)=O)C3=C(C(=O)C(C)=C(NCCCCSSC[C@H](N)C(=O)NCC(=O)O)C3=O)N1C[C@@H]1N[C@@H]12 [Compound 27]
- solubility: > 39 mg/mL

Source: patent publication EP0214303A1, “DISULFIDE COMPOUNDS AND ANTINEOPLASTIC AGENTS” (priority 1985, dated 1986)
